The structures appear in SMILES notation.

Our source for the IC50 values is article PMC5538702, “Inhibitory effects and mechanism of dihydroberberine on hERG channels expressed in HEK293 cells” (PLoS ONE, 2017).

The target in this test is T1, human ether-a-go-go-related gene (hERG) potassium channel (Homo sapiens, UniProt Q12809).
T1 construct: gene KCNH2; WT hERG stably expressed in HEK293 cells
In words: whole-cell patch clamp of hERG tail current, immediate perfusion; acute block lost in Y652A and F656V mutants. Format: cell-based.

T1 sequence (Q12809 whole entry): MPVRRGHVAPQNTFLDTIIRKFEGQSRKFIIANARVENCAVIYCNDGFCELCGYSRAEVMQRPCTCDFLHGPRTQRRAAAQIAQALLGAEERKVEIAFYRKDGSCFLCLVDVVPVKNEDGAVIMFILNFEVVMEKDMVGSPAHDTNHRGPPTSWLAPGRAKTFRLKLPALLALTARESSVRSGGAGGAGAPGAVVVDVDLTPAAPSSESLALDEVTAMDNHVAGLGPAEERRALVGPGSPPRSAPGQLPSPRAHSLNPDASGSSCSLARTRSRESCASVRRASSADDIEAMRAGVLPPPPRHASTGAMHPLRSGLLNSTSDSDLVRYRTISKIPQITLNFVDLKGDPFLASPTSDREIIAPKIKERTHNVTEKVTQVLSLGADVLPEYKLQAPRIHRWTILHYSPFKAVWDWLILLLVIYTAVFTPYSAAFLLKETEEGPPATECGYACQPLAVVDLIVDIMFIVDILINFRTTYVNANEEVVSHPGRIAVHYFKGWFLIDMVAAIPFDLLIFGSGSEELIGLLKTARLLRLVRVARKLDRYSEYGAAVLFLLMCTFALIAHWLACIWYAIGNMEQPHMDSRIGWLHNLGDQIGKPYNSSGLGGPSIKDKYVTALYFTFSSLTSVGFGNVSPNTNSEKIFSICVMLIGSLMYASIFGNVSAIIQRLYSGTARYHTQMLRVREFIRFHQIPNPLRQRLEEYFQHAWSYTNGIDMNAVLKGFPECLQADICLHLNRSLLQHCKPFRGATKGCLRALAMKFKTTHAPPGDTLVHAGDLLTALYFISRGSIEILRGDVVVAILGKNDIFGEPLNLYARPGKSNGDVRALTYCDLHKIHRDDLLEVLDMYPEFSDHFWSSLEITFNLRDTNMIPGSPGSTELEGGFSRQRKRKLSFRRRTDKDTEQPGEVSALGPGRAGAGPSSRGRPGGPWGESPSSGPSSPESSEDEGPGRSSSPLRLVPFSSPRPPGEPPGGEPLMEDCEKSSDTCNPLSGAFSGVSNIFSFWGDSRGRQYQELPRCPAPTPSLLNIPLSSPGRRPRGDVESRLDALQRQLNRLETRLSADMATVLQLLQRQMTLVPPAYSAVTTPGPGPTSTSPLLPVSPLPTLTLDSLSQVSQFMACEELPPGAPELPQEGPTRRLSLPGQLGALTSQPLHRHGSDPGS

What is called IC50 is the midpoint of a concentration-inhibition curve. `COc1ccc2c(c1OC)CN1CCc3cc4c(cc3C1=C2)OCO4` [DHB, dihydroberberine] came in with an IC50 of 10.5 µM.
